Reference: patent US10106556B2, “Heterocyclic compound” (TAKEDA PHARMACEUTICAL COMPANY LIMITED, priority 2015, dated 2018)

Biological target: T1, His-hMAGL (recombinant polyhistidine tagged human MAGL protein) (Homo sapiens, UniProt Q99685)
T1 construct: made in house; host or cells: E. coli BL21(DE3)
T1 sequence (Q99685 1-303): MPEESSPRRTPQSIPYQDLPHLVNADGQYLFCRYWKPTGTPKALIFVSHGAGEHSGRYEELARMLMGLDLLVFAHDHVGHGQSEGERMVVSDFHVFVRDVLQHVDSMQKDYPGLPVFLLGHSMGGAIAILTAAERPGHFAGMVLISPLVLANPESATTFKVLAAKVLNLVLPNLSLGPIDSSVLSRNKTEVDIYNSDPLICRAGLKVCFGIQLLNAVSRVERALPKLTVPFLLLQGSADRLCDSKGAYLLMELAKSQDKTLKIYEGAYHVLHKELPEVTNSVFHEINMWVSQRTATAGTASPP
Assay: Measurement of MAGL inhibitory activity (arachidonic acid production from 2-arachidonylglycerol, RapidFire-mass spectrometry)
Assay type: biochemical
Details: MAGL inhibitory rate at 10 μM test compound; 60 min preincubation with His-hMAGL, 2-arachidonylglycerol substrate, 10 min reaction at room temperature
In short: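 Recombinant His-tagged human MAGL converted 2-arachidonylglycerol to arachidonic acid. Reactions received acetonitrile with 3 μM arachidonic acid-d8 as internal standard, and product was quantified by RapidFire SPE (C4) with negative-mode SRM mass spectrometry. Percent inhibition was calculated against compound-free and enzyme-free controls.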

| SMILES | inhibition at 10 µM [%] |
| --- | --- |
| O=C1COc2cc(F)c(C(=O)N3CC(COc4ccc(Cl)cc4-c4cccnc4)C3)cc2N1 [Example 192, 6-((3-((4-chloro-2-(pyridin-3-yl)phenoxy)methyl)azetidin-1-yl)carbonyl)-7-fluoro-2H-1,4-benzoxazin-3(4H)-one] | 99 |
| Cc1nn(C)cc1-c1cc(Cl)ccc1OCC1CN(C(=O)c2cc3c(cc2F)OCC(=O)N3)C1 [Example 265, 6-((3-((4-chloro-2-(1,3-dimethyl-1H-pyrazol-4-yl)phenoxy)methyl)azetidin-1-yl)carbonyl)-7-fluoro-2H-1,4-benzoxazin-3(4H)-one] | 99 |
| O=C1COc2cc(F)c(C(=O)N3CC(COc4noc5ccc(Cl)cc45)C3)cc2N1 [Example 180, 6-((3-(((5-chloro-1,2-benzoxazol-3-yl)oxy)methyl)azetidin-1-yl)carbonyl)-7-fluoro-2H-1,4-benzoxazin-3(4H)-one] | 96 |
| CC(Oc1ccc(F)cc1Cl)C1CN(C(=O)c2cc3c(cc2F)OCC(=O)N3)C1 (stereo not drawn) [Example 297, 6-((3-(1-(2-chloro-4-fluorophenoxy)ethyl)azetidin-1-yl)carbonyl)-7-fluoro-2H-1,4-benzoxazin-3(4H)-one] | 99 |
| O=C1COc2cc(F)c(C(=O)N3CC(OCc4cccc(C(F)F)c4)C3)cc2N1 [Example 339] | 103 |
| CC(Oc1ccc(F)cc1F)C1CCN(C(=O)c2cc3c(cc2F)OCC(=O)N3)CC1 (stereo not drawn) [Example 294, 6-((4-(1-(2,4-difluorophenoxy)ethyl)piperidin-1-yl)carbonyl)-7-fluoro-2H-1,4-benzoxazin-3(4H)-one] | 99 |
| O=C1COc2cc(F)c(C(=O)N3CC(COc4ccc(Cl)cc4-c4cncc(F)c4)C3)cc2N1 [Example 200, 6-((3-((4-chloro-2-(5-fluoropyridin-3-yl)phenoxy)methyl)azetidin-1-yl)carbonyl)-7-fluoro-2H-1,4-benzoxazin-3(4H)-one] | 102 |
| CC(C)(Oc1ccc(F)cc1F)C1CN(C(=O)c2cc3c(cc2F)OCC(=O)N3)C1 [Example 308, 6-((3-(2-(2,4-difluorophenoxy)propan-2-yl)azetidin-1-yl)carbonyl)-7-fluoro-2H-1,4-benzoxazin-3 (4H)-one] | 104 |
| O=C1COc2cc(F)c(C(=O)N3CC(OCc4cccc(F)c4)C3)cc2N1 [Example 331, 7-fluoro-6-((3-((3-fluorobenzyl)oxy)azetidin-1-yl)carbonyl)-2H-1,4-benzoxazin-3(4H)-one] | 100 |
| O=C1COc2cc(F)c(C(=O)N3CC(COc4ccc(-c5ccnc(F)c5)cc4F)C3)cc2N1 [Example 240, 7-fluoro-6-((3-((2-fluoro-4-(2-fluoropyridin-4-yl)phenoxy)methyl)azetidin-1-yl)carbonyl)-2H-1,4-benzoxazin-3(4H)-one] | 102 |
| O=C1COc2cc(F)c(C(=O)N3CC(COc4ccc(-c5ccccc5)cc4)C3)cc2N1 [Example 108, 6-((3-((biphenyl-4-yloxy)methyl)azetidin-1-yl)carbonyl)-7-fluoro-2H-1,4-benzoxazin-3(4H)-one] | 99 |
| COc1cccc(COC2CN(C(=O)c3cc4c(cc3F)OCC(=O)N4)C2)c1 [Example 328, 7-fluoro-6-((3-((3-methoxybenzyl)oxy)azetidin-1-yl)carbonyl)-2H-1,4-benzoxazin-3(4H)-one] | 101 |
| O=C1COc2cc(F)c(C(=O)N3CC(OCc4ccc(-n5cccn5)cc4)C3)cc2N1 [Example 338, 7-fluoro-6-((3-((4-(1H-pyrazol-1-yl)benzyl)oxy)azetidin-1-yl)carbonyl)-2H-1,4-benzoxazin-3(4H)-one] | 101 |
| Cc1nn(C)c(C)c1-c1cc(Cl)ccc1OCC1CN(C(=O)c2cc3c(cc2F)OCC(=O)N3)C1 [Example 267, 6-((3-((4-chloro-2-(1,3,5-trimethyl-1H-pyrazol-4-yl)phenoxy)methyl)azetidin-1-yl)carbonyl)-7-fluoro-2H-1,4-benzoxazin-3(4H)-one] | 101 |
| Cc1ncccc1-c1cc(Cl)ccc1OCC1CN(C(=O)c2cc3c(cc2F)OCC(=O)N3)C1 [Example 191, 6-((3-((4-chloro-2-(2-methylpyridin-3-yl)phenoxy)methyl)azetidin-1-yl)carbonyl)-7-fluoro-2H-1,4-benzoxazin-3(4H)-one] | 102 |

Further lines, results first:

| inhibition at 10 µM [%] | SMILES |
| --- | --- |
| 100 | O=C1COc2ncc(C(=O)N3CCC(COc4ccccc4C(F)(F)F)CC3)cc2N1 [Example 19, 7-((4-((2-(trifluoromethyl)phenoxy)methyl)piperidin-1-yl)carbonyl)-1H-pyrido [2,3-b][1,4]oxazin-2(3H)-one] |
| 97 | O=C1COc2ccc(C(=O)N3CCC(COc4cc(F)ccc4Cl)CC3)cc2N1 [Example 31, 6-((4-((2-chloro-5-fluorophenoxy)methyl)piperidin-1-yl)carbonyl)-2H-1,4-benzoxazin-3(4H)-one] |
| 98 | O=C1COc2cc(F)c(C(=O)N3CC(COc4cc(Cl)ccc4Cl)C3)cc2N1 [Example 125, 6-((3-((2,5-dichlorophenoxy)methyl)azetidin-1-yl)carbonyl)-7-fluoro-2H-1,4-benzoxazin-3(4H)-one] |
| 98 | O=C1COc2cc(F)c(C(=O)N3CCC(COc4ccc(F)cc4-c4ccccc4)CC3)cc2N1 [Example 100, 7-fluoro-6-((4-(((5-fluorobiphenyl-2-yl)oxy)methyl)piperidin-1-yl)carbonyl)-2H-1,4-benzoxazin-3(4H)-one] |
| 104 | Cc1ccc(OCC2CCN(C(=O)c3ccc4c(c3)NC(=O)CO4)CC2)c(Cl)c1 [Example 36, 6-((4-((2-chloro-4-methylphenoxy)methyl)piperdin-1-yl)carbonyl)-2H-1,4-benzoxazin-3(4H)-one] |
| 95 | O=C1COc2cc(F)c(C(=O)N3CC(COc4ccc5c(c4)CCC5)C3)cc2N1 [Example 154, 6-((3-((2,3-dihydro-1H-inden-5-yloxy)methyl)azetidin-1-yl)carbonyl)-7-fluoro-2H-1,4-benzoxazin-3(4H)-one] |
| 102 | O=C1COc2cc(F)c(C(=O)N3CC(COc4ccc(Cl)cc4F)C3)cc2N1 [Example 126, 6-((3-((4-chloro-2-fluorophenoxy)methyl)azetidin-1-yl)carbonyl)-7-fluoro-2H-1,4-benzoxazin-3(4H)-one] |
| 99 | N#Cc1cc(C(F)(F)F)ccc1OCC1CCN(C(=O)c2ccc3c(c2)NC(=O)C3)CC1 [Example 69, 2-((1-((2-oxo-2,3-dihydro-1H-indol-6-yl)carbonyl)piperidin-4-yl)methoxy)-5-(trifluoromethyl)benzonitrile] |
| 86 | O=C1COc2ccc(C(=O)N3CCC(COc4nc5ccccc5s4)CC3)cc2N1 [Example 62, 6-((4-((1,3-benzothiazol-2-yloxy)methyl)piperidin-1-yl)carbonyl)-2H-1,4-benzoxazin-3(4H)-one] |
| 85 | O=C1COc2cc(F)c(C(=O)N3CCC(COc4ccc(-c5ccccc5)cc4)CC3)cc2N1 [Example 149, 6-((4-((biphenyl-4-yloxy)methyl)piperidin-1-yl)carbonyl)-7-fluoro-2H-1,4-benzoxazin-3(4H)-one] |
| 98 | O=C1COc2ccc(C(=O)N3CCC(COc4cccc(OC(F)(F)F)c4)CC3)cc2N1 [Example 54, 6-((4-((3-(trifluoromethoxy)phenoxy)methyl)piperidin-1-yl)carbonyl)-2H-1,4-benzoxazin-3(4H)-one] |
| 99 | O=C1COc2cc(F)c(C(=O)N3CC(COc4cc(Cl)cc(Cl)c4)C3)cc2N1 [Example 127, 6-((3-((3,5-dichlorophenoxy)methyl)azetidin-1-yl)carbonyl)-7-fluoro-2H-1,4-benzoxazin-3(4H)-one] |
| 101 | Cc1cc(Cl)ccc1OCC1CN(C(=O)c2cc3c(cc2F)OCC(=O)N3)C1 [Example 226, 6-((3-((4-chloro-2-methylphenoxy)methyl)azetidin-1-yl)carbonyl)-7-fluoro-2H-1,4-benzoxazin-3(4H)-one] |
| 101 | O=C1COc2ccc(C(=O)N3CCC(C(F)(F)c4ccc(F)cc4)CC3)cc2N1 [Example 355, 6-((4-(difluoro(4-fluorophenyl)methyl)piperidin-1-yl)carbonyl)-2H-1,4-benzoxazin-3(4H)-one] |
| 90 | O=C1COc2ccc(C(=O)N3CCC(COc4ccc(Cl)nc4)CC3)cc2N1 [Example 44, 6-((4-(((6-chloropyridin-3-yl)oxy)methyl)piperidin-1-yl)carbonyl)-2H-1,4-benzoxazin-3(4H)-one] |
| 102 | Cc1ccc(-c2cc(Cl)ccc2OCC2CN(C(=O)c3cc4c(cc3F)OCC(=O)N4)C2)cn1 [Example 190, 6-((3-((4-chloro-2-(6-methylpyridin-3-yl)phenoxy)methyl)azetidin-1-yl)carbonyl)-7-fluoro-2H-1,4-benzoxazin-3(4H)-one] |

Same assay, conditions: MAGL inhibitory rate at 10 μM test compound; 60 min preincubation with His-hMAGL, 2-arachidonylglycerol substrate, 10 min reaction at room temperature; 10 µM

| % inhibition (10 μM) [%] | SMILES |
| --- | --- |
| 99 | CC(Oc1ccc(F)cc1F)C1CN(C(=O)c2cc3c(cc2F)OCC(=O)N3)C1 (stereo not drawn) [Example 301, 6-((3-(1-(2,4-difluorophenoxy)ethyl)azetidin-1-yl)carbonyl)-7-fluoro-2H-1,4-benzoxazin-3(4H)-one] |
| 103 | CC(Oc1ccc(F)c(F)c1)C1CN(C(=O)c2cc3c(cc2F)OCC(=O)N3)C1 (stereo not drawn) [Example 313, 6-((3-(1-(3,4-difluorophenoxy)ethyl)azetidin-1-yl)carbonyl)-7-fluoro-2H-1,4-benzoxazin-3(4H)-one] |
